Several values for one entry are separate records, joined by “and”; a condition that tells them apart may be missing. Equal values may be shown once.
What was measured:
SERT L406E = target: T1, SERT L406E (Homo sapiens, UniProt P31645, L406E); experiment: [3H]IMI dissociation rate assay; type: binding; settings: for [^3H]IMI dissociation relative to control (source data Fig 4B): L406E
T1 construct: expressed in transfected cells; host or cells: COS-7
Procedure: (§1) All mutations were confirmed by DNA sequencing. The used primers were
(§2) The allosteric potency was calculated as previously described.

SERT R104K = target: T2, SERT R104K (Homo sapiens, UniProt P31645, R104K); experiment: [3H]IMI dissociation rate assay; type: binding
T2 construct: expressed in transfected cells; host or cells: COS-7
Procedure: as §1, §2

SERT WT [1] = target: T3, SERT WT (Homo sapiens, UniProt P31645); experiment: [3H]IMI competitive binding on COS-7 membranes
T3 construct: expressed in transfected cells; host or cells: COS-7
Procedure: [^3H]S-CIT and [^3H]IMI competitive binding experiments were performed on membrane preparations of COS-7 cells transiently transfected with SERT WT. Membrane aliquots were mixed with membrane buffer containing 5–10 nM of either [^3H]S-CIT or [^3H]IMI and Lu AF60097 in the indicated concentrations to a final volume of 300 µL. The binding experiments were incubated 1 h at room temperature and subsequently filtered, washed and counted as described under ‘[^3H]IMI and [^3H]S-CIT dissociation rate assay’. Non-specific binding was determined by adding 5 µM paroxetine.

SERT WT [2] = target: T3, SERT WT; experiment: [3H]5-HT uptake in intact COS-7 cells; type: cell-based; parameters: 5-HT uptake: unit not given here; settings: for 5-HT uptake: Fig 5B

T1 sequence (P31645 whole entry L406E): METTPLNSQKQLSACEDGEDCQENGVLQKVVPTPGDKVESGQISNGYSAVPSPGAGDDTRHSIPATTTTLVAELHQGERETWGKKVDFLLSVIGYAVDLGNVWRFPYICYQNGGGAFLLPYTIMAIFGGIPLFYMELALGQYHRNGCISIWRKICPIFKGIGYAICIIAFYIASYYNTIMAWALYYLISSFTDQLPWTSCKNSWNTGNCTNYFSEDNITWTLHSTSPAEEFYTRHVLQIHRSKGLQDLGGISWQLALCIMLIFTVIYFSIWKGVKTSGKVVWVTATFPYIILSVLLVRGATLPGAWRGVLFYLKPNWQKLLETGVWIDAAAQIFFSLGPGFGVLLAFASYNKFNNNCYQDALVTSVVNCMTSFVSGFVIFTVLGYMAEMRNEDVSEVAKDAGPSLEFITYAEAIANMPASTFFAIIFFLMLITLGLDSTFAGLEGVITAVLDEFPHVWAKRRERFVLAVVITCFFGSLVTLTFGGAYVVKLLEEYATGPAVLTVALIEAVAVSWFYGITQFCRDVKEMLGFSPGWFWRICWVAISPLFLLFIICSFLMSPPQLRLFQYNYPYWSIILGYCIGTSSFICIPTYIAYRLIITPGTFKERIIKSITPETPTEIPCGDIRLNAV
T3 sequence (P31645 whole entry): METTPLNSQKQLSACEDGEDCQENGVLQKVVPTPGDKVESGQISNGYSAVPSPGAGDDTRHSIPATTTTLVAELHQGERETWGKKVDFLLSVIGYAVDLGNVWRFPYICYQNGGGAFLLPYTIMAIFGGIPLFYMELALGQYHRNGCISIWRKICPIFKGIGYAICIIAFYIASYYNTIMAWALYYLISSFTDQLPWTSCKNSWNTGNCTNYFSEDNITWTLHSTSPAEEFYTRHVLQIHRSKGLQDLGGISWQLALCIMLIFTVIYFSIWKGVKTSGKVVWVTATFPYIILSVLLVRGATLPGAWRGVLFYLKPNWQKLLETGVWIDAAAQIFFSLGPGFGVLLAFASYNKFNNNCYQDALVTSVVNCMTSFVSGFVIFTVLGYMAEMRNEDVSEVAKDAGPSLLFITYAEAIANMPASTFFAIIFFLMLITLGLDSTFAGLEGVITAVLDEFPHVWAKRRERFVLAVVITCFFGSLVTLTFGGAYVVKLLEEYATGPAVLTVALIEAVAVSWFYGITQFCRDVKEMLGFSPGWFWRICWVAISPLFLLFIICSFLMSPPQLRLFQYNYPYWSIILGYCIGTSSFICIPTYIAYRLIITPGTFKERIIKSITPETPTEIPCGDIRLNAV
T2 sequence (P31645 whole entry R104K): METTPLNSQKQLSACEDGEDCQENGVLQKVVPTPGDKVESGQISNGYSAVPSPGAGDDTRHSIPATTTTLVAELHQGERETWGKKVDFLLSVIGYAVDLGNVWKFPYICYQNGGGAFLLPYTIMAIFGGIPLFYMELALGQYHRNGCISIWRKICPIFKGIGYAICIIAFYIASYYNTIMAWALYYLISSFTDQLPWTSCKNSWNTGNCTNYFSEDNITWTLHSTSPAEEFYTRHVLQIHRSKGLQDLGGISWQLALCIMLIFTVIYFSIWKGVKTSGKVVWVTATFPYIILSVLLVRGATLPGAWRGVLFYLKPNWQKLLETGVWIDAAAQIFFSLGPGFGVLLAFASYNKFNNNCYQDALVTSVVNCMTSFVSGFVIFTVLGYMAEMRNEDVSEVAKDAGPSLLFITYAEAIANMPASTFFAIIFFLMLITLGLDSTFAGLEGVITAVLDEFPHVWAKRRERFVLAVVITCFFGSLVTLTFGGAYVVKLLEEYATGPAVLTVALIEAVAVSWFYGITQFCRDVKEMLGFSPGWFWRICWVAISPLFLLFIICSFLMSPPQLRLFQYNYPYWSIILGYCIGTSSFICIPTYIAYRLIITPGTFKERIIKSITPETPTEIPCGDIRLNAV

[^3H]IMI dissociation relative to control (source data Fig 4B) (SERT L406E; log conc -6.386): 0.6157 and 0.6402 and 0.5827 | [^3H]IMI dissociation relative to control (source data Fig 4B) (SERT L406E; log conc -6.863): 0.8533 and 0.8586 and 0.8107 | [^3H]IMI dissociation relative to control (source data Fig 4B) (SERT L406E; log conc -7.34): 0.9622 and 0.9861 and 1.0073 | [^3H]IMI dissociation relative to control (source data Fig 4B) (SERT L406E; log conc -7.817): 1.016 and 1.0012 and 1.0446 | IC50 (SERT L406E; SERT L406E (EL4), read-out: Lu AF60097 allosteric potency ([^3H]IMI dissociation IC50)): 650 nM | ΔAP (mut/WT), change in allosteric potency relative to SERT WT (SERT R104K; R104K, [^3H]IMI dissociation): 19 | [^3H]IMI dissociation relative to control (source data Fig 4B) (SERT R104K; R104K, log conc -5.91): 0.3316 and 0.2892 and 0.4871 and 0.3865 | [^3H]IMI dissociation relative to control (source data Fig 4B) (SERT R104K; R104K, log conc -6.386): 0.5872 and 0.4706 and 0.6618 and 0.5459 | [^3H]IMI dissociation relative to control (source data Fig 4B) (SERT R104K; R104K, log conc -6.863): 0.8956 and 0.6502 and 0.7387 and 0.7045 | [^3H]IMI dissociation relative to control (source data Fig 4B) (SERT R104K; R104K, log conc -7.34): 1.0439 and 0.7759 and 0.8174 and 0.7536 | [^3H]IMI dissociation relative to control (source data Fig 4B) (SERT R104K; R104K, log conc -7.817): 0.9753 and 0.7981 and 0.836 and 0.9683 | IC50 (SERT R104K; SERT R104K (TM1), read-out: Lu AF60097 allosteric potency ([^3H]IMI dissociation IC50)): 630 nM | Displacement of [^3H]IMI in binding experiment (SERT WT [1]; equilibrium binding, SERT WT membranes): not displaced | Displacement of [3H]IMI binding (normalized bound, Fig S6) (SERT WT [1]; log[Lu AF60097] -4.9586): 0.8037 and 0.8081 and 0.979 | Displacement of [3H]IMI binding (normalized bound, Fig S6) (SERT WT [1]; log[Lu AF60097] -5.2596): 0.9221 and 1.029 and 1.04 | Displacement of [3H]IMI binding (normalized bound, Fig S6) (SERT WT [1]; log[Lu AF60097] -5.5607): 1.05 and 0.9989 and 1.0302 | Displacement of [3H]IMI binding (normalized bound, Fig S6) (SERT WT [1]; log[Lu AF60097] -5.8617): 1.118 and 1.161 and 1.01 | Displacement of [3H]IMI binding (normalized bound, Fig S6) (SERT WT [1]; log[Lu AF60097] -6.1627): 1.173 and 1.156 and 0.9563 | Displacement of [3H]IMI binding (normalized bound, Fig S6) (SERT WT [1]; log[Lu AF60097] -6.4638): 1.154 and 1.04 and 1.011 | Displacement of [3H]IMI binding (normalized bound, Fig S6) (SERT WT [1]; log[Lu AF60097] -6.7648): 1.061 and 1.088 and 0.8905 | Displacement of [3H]IMI binding (normalized bound, Fig S6) (SERT WT [1]; log[Lu AF60097] -7.0658): 1.098 and 0.9993 and 0.8339 | Displacement of [3H]IMI binding (normalized bound, Fig S6) (SERT WT [1]; log[Lu AF60097] -7.3668): 1.049 and 0.9798 | Displacement of [3H]IMI binding (normalized bound, Fig S6) (SERT WT [1]; log[Lu AF60097] -7.6679): 1.052 and 1.0159 | Vmax 5-HT (SERT WT [2]; 10 nM Lu AF60097): 1232 ± 48 fmol/min | Vmax 5-HT (SERT WT [2]; 20 nM Lu AF60097): 1279 ± 64 fmol/min | Vmax 5-HT (SERT WT [2]; 40 nM Lu AF60097): 1007 ± 58 fmol/min | Vmax 5-HT (SERT WT [2]; 80 nM Lu AF60097): 1361 ± 78 fmol/min | Vmax 5-HT (SERT WT [2]; 160 nM Lu AF60097): 1235 ± 34 fmol/min | Vmax 5-HT (SERT WT [2]; 320 nM Lu AF60097): 973 ± 25 fmol/min | Vmax 5-HT (SERT WT [2]; 640 nM Lu AF60097): 971 ± 21 fmol/min | inhibition at 0.027 µM (SERT WT [2]; COS-7, read-out: Decrease (inhibition) of [^3H]5-HT uptake relative to control, IMI 4 nM, Lu AF60097 27 nM, alone or together): 5 ± 1.8% | 5-HT uptake (SERT WT [2]; 0.1474 µM 5HT, 640 nM AF60097): 82.89 and 76.41 and 75.6 and 73.71 | 5-HT uptake (SERT WT [2]; 0.2395 µM 5HT, 640 nM AF60097): 119.3 and 114.2 and 108 and 121.2 | 5-HT uptake (SERT WT [2]; 0.4844 µM 5HT, 10 nM AF60097): 585 | 5-HT uptake (SERT WT [2]; 0.4844 µM 5HT, 320 nM AF60097): 301.6 and 284.3 and 264.9 | 5-HT uptake relative to ctrl (ctrl = 100) (SERT WT [2]; Fig 5C, 27 nM AF60097): 100 and 97 and 96 and 91 and 88 | [^3H]5-HT uptake (in % of buffer/control) (SERT WT [2]; IMI 4 nM, Lu AF60097 27 nM, alone or together): 95 ± 1.8% | Ki (SERT WT [2]; SERT WT): 220 nM | IC50 (SERT WT [2]; hSERT in COS-7 cells): 207 nM
Structure (SMILES): NC(=O)c1ccc2c(c1)CO[C@@]2(CCCN1CCC(c2ccc3ccc(=O)[nH]c3c2)CC1)c1ccc(F)cc1 [Lu AF60097, (S)-1-(4-fluorophenyl)-1-(3-(4-(2-oxo-1,2-dihydroquinolin-7-yl)piperidin-1-yl)propyl)-1,3-dihydroisobenzofuran-5-carboxamide]
5-HT uptake (SERT WT [2]; 0.1474 µM 5HT, 10 nM AF60097): 289.4 and 268.7 and 257.4 and 246.6 and 314.6 | 5-HT uptake (SERT WT [2]; 0.1474 µM 5HT, 20 nM AF60097): 295.7 and 305.6 and 246.2 and 292.1 and 271.4 | 5-HT uptake (SERT WT [2]; 0.1474 µM 5HT, 80 nM AF60097): 149 and 175.1 and 138.2 and 177.3 and 172.8 | 5-HT uptake (SERT WT [2]; 0.1474 µM 5HT, 160 nM AF60097): 193.5 and 184.1 and 172.4 and 177.3 and 155.3 | 5-HT uptake (SERT WT [2]; 0.1474 µM 5HT, 320 nM AF60097): 124.2 and 120.2 and 98.55 and 160.4 and 125 | 5-HT uptake (SERT WT [2]; 0.2395 µM 5HT, 10 nM AF60097): 401.9 and 351.5 and 378.9 and 356.9 and 437.9 | 5-HT uptake (SERT WT [2]; 0.2395 µM 5HT, 20 nM AF60097): 431.1 and 402.3 and 370.8 and 428 and 381.2 | 5-HT uptake (SERT WT [2]; 0.2395 µM 5HT, 80 nM AF60097): 239.4 and 237.2 and 197.1 and 278.1 and 258.3 | 5-HT uptake (SERT WT [2]; 0.2395 µM 5HT, 160 nM AF60097): 283.1 and 275.9 and 262.8 and 254.3 and 202.5 | 5-HT uptake (SERT WT [2]; 0.2395 µM 5HT, 320 nM AF60097): 170.4 and 178.2 and 155 and 215.5 and 193.6 | 5-HT uptake (SERT WT [2]; 0.4844 µM 5HT, 20 nM AF60097): 624.2 and 642.2 and 563.4 and 555.8 and 512.1 | 5-HT uptake (SERT WT [2]; 0.4844 µM 5HT, 160 nM AF60097): 469.4 and 426.6 and 404.6 and 365.9 and 356

— article PMC7083837 (Nature Communications, 2020)
